Measurements published in ChEMBL document CHEMBL5331123, “Potent Dual Inhibitors of Steroid Sulfatase and 17β-Hydroxysteroid Dehydrogenase Type 1 with a Suitable Pharmacokinetic Profile for In Vivo Proof-of-Principle Studies in an Endometriosis Mouse Model” (J Med Chem, 2023).
In brackets after ≈: the same amount, converted by molar mass.

Tests used:
HepG2 = assay: Cytotoxicity against human HepG2 cells assessed as cell growth inhibition by measuring lethal concentration measured after 48 hrs by MTT assay; type: functional
[1] = Observed Cmax in C57BL/6 mouse at 50 mg/kg, sc administered as single dose measured upto 24 hrs by HPLC-MS/MS analysis; type: ADME, organism-based; parameters: time < 24 hrs, dose 50 mg/kg, route sc; details: in vivo
[2] = molecular target: T1, 17-beta-hydroxysteroid dehydrogenase type 1 (Homo sapiens, UniProt P14061); assay: Inhibition of human 17beta-HSD1 expressed in human T47D cells using [3H]E1 as substrate incubated for 1 hr followed by substrate addition measured after 40 mins in presence of E1 by HPLC analysis; type: cell-based
T1 sequence (P14061 whole entry): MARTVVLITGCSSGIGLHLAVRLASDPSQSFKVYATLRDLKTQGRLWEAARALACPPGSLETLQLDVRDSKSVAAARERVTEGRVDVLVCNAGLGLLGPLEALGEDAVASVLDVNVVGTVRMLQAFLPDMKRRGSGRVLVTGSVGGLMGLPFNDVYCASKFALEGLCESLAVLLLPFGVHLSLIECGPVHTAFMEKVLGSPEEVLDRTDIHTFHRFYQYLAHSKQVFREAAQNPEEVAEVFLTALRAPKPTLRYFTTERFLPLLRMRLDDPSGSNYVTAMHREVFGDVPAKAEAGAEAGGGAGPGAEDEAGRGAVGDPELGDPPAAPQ

[3] = Metabolic stability in human liver S9 fraction assessed as intrinsic clearance measured upto 60 mins in presence of NADPH by LC-MS/MS analysis; type: ADME, subcellular; details: read-out: CLH
[4] = Aqueous solubility of compound in PBS measured after 1 to 24 hrs; type: physicochemical; details: time 1-24 hrs
Steryl-sulfatase [5] = molecular target: T2, Steryl-sulfatase (Homo sapiens, UniProt P08842); assay: Inhibition of human STS expressed in human T47D cells using [3H]E1S as substrate incubated for 1 hr followed by substrate addition measured after 24 hrs in presence of E1S by HPLC analysis; type: cell-based
T2 sequence (P08842 whole entry): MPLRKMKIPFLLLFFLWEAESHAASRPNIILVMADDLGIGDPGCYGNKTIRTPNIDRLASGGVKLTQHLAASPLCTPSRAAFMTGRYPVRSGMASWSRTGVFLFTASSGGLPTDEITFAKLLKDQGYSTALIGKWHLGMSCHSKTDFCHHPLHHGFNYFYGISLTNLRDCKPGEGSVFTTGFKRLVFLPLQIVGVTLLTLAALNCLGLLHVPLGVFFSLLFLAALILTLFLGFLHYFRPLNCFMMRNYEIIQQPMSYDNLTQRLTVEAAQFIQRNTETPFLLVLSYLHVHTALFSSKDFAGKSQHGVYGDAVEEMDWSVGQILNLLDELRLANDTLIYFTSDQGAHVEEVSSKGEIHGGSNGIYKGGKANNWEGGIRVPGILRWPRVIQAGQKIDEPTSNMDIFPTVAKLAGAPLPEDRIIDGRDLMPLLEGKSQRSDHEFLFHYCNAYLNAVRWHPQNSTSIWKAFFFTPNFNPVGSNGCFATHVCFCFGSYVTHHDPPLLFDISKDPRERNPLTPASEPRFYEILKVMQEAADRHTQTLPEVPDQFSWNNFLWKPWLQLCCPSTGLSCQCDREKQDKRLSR

Steryl-sulfatase [6] = molecular target: T2, Steryl-sulfatase; assay: Irreversible inhibition of human STS expressed in human T47D cells using [3H]E1S as substrate preincubated for 2 hr followed by substrate addition measured after 24 hrs in presence of E1S by HPLC analysis; type: cell-based
[7] = molecular target: T3, Aryl hydrocarbon receptor (Homo sapiens, UniProt P35869); assay: Activation of AhR in human HepG2 cells assessed as increase in CYP1A1 activity at 3.16 uM measured after 48 hrs by fluorescence based analysis; type: cell-based; details: hepg2, 48 h
T3 sequence (P35869 whole entry): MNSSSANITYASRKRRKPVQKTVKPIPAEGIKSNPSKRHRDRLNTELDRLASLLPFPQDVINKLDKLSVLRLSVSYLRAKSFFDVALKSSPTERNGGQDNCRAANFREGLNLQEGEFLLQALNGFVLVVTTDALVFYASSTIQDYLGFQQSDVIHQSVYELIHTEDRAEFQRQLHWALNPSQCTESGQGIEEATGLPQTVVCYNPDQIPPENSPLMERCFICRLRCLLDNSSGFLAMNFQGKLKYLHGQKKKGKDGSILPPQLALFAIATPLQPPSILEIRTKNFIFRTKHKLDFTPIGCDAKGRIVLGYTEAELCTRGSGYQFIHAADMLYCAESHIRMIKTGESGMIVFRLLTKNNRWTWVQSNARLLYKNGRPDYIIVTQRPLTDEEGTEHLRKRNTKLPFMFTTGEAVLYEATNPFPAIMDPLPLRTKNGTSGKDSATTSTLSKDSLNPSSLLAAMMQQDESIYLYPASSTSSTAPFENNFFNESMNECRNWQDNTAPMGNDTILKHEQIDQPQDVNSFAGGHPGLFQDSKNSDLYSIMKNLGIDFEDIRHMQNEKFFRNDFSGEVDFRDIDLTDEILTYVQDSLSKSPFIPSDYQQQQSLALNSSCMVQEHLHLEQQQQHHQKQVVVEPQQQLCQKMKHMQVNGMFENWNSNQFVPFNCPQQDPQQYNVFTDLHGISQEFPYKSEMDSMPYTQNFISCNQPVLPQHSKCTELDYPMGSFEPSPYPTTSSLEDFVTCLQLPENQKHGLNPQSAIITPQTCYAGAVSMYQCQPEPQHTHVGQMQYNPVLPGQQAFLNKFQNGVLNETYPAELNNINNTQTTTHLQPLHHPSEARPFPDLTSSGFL

[8] = Metabolic stability in mouse liver S9 fraction assessed as half life measured upto 60 mins in presence of NADPH by LC-MS/MS analysis; type: ADME, subcellular; details: for half-life: liver S9 fraction
[9] = Metabolic stability in human liver S9 fraction assessed as half life measured upto 60 mins in presence of NADPH by LC-MS/MS analysis; type: ADME, subcellular; details: for half-life: liver S9 fraction
Homo sapiens [10] = organism: Homo sapiens; assay: Selectivity ratio of IC50 for human placental microsomal fraction 17beta-HSD2 to IC50 for human placental microsomal fraction 17beta-HSD1
[11] = molecular target: T1, 17-beta-hydroxysteroid dehydrogenase type 1; assay: Inhibition of human placental cytosolic fraction 17beta-HSD1 using [3H]E1 as substrate measured after 10 mins in presence of NADH by HPLC analysis; type: tissue-based, Placenta
[12] = Half life in C57BL/6 mouse at 50 mg/kg, sc administered as single dose measured after 24 hrs by HPLC-MS/MS analysis; type: ADME, organism-based; details: in vivo
[13] = Drug concentration in C57BL/6 mouse at 50 mg/kg, sc administered as single dose measured after 24 hrs by HPLC-MS/MS analysis; type: ADME, organism-based; details: in vivo, read-out: Drug uptake
[14] = Lipophilicity, logD of compound at pH 7.4; type: physicochemical; details: buffer
[15] = AUC(0 to 24 hrs) in C57BL/6 mouse at 50 mg/kg, sc administered as single dose measured after 24 hrs by HPLC-MS/MS analysis; type: ADME, organism-based; parameters: time 24 hrs, dose 50 mg/kg, route sc; details: in vivo
HEK293 = assay: Cytotoxicity against HEK293 cells assessed as cell growth inhibition by measuring lethal concentration measured after 72 hrs by MTT assay; type: functional, Homo sapiens
[16] = molecular target: T4, 17-beta-hydroxysteroid dehydrogenase type 2 (Homo sapiens, UniProt P37059); assay: Inhibition of human placental microsomal fraction 17beta-HSD2 using [3H]E2 as substrate measured after 20 mins in presence of NAD+ by HPLC analysis; type: microsomes, Placenta, Microsome
T4 sequence (P37059 whole entry): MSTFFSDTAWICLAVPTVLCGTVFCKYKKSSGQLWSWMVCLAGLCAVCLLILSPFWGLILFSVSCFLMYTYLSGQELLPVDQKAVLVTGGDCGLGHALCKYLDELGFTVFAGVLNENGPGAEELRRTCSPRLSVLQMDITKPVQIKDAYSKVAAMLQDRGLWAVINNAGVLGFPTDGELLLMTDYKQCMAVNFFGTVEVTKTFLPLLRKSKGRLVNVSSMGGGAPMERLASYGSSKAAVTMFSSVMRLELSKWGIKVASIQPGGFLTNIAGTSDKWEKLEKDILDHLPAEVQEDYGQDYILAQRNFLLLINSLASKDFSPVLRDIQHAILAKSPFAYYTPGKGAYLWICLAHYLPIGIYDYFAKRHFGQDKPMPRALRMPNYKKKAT

[17] = molecular target: T5, Steryl-sulfatase (Homo sapiens) (UniProt P08842); assay: Inhibition of human STS expressed in human T47D cells at 1 uM using [3H]E1S as substrate incubated for 1 hr followed by substrate addition measured after 24 hrs in presence of E1S by HPLC analysis relative to control; type: cell-based; details: time 25.0 hrs
T5 sequence (whole entry): T2 sequence (P08842 whole entry)

Homo sapiens [18] = organism: Homo sapiens; assay: Selectivity ratio of IC50 for human 17beta-HSD2 to IC50 for human 17beta-HSD1
[19] = Cmax in C57BL/6 mouse at 50 mg/kg, sc administered as single dose ever day measured after 2 hrs by HPLC-MS/MS analysis; type: ADME, organism-based; parameters: dose 50 mg/kg, time 2 hrs, route sc; details: in vivo
[20] = Cmin in C57BL/6 mouse at 50 mg/kg, sc administered as single dose ever day measured after 24 hrs by HPLC-MS/MS analysis; type: ADME, organism-based; details: in vivo, read-out: Cmin
[21] = Oral bioavailability in C57BL/6 mouse at 50 mg/kg administered as single dose measured after 24 hrs by HPLC-MS/MS analysis; type: ADME, organism-based; details: in vivo

Structure (SMILES)	IC50 [2]	microsomal CLint [3]	IC50 (Steryl-sulfatase [5])	half-life [8]	half-life [9]	Ratio IC50 (Homo sapiens [10])	IC50 [11]	IC50 [16]	other results
Cc1ccc(OS(N)(=O)=O)cc1N(C)C(=O)c1ccc(-c2cc(C)c(O)c(C)c2)o1	3.2 nM	35.9 µL/min/mg	450 nM	28.5 min	19.3 min	275	16 nM	4400 nM	LC20 (HepG2): 28000 nM; Cmax [1]: 517 nM; solubility [4]: 20 µM (≈ 8.61 µg/mL); IC50 (Steryl-sulfatase [6]): 460 nM; Activity [7]: Not Active; half-life [12]: 129 min; concentration at 24 h [13]: 49 nM; logD [14]: 2.68; AUC(0-t) at 24 h [15]: 1900 ng·h/mL; LC20 (HEK293): <=38 uM
Cc1cc(-c2ccc(C(=O)N(C)c3c(C)cccc3OS(N)(=O)=O)o2)cc(C)c1O	140 nM	–	–	–	–	–	–	–	Activity [7]: Not Active; inhibition [17]: < 10%
O=C(c1ccc(-c2ccc(O)cc2)s1)c1c(F)ccc(O)c1F	–	–	–	–	< 5 min	–	–	–	Ratio IC50 (Homo sapiens [18]): 24
Cc1cc(OS(N)(=O)=O)c(Cl)cc1N(C)C(=O)c1ccc(-c2cc(C)c(O)c(C)c2)o1	53 nM	19.4 µL/min/mg	76 nM	22.5 min	35.6 min	110	68 nM	7500 nM	LC20 (HepG2): 31000 nM; Cmax [1]: 400 nM; solubility [4]: 20 µM (≈ 9.3 µg/mL); IC50 (Steryl-sulfatase [6]): 79 nM; half-life [12]: 169 min; concentration at 24 h [13]: 62 nM; logD [14]: 2.75; AUC(0-t) at 24 h [15]: 1900 ng·h/mL; LC20 (HEK293): <=27 uM
C[C@]12CC[C@H]3[C@@H](CCC4=CC(=O)CC[C@@]43C)[C@@H]1CC[C@@H]2O [TESTOSTERONE]	–	74.5 µL/min/mg	–	–	–	–	–	–	–
Cc1cc(OS(N)(=O)=O)ccc1N(C)C(=O)c1ccc(-c2cc(C)c(O)c(C)c2)o1	11 nM	8.2 µL/min/mg	400 nM	56.1 min	85.2 min	145	43 nM	6200 nM	LC20 (HepG2): 23000 nM; Cmax [1]: 2820 nM; solubility [4]: 40 µM (≈ 17.2 µg/mL); Cmax [19]: 2350 nM; IC50 (Steryl-sulfatase [6]): 420 nM; Activity [7]: Not Active; half-life [12]: 229 min; concentration at 24 h [13]: 797 nM; logD [14]: 2.2; AUC(0-t) at 24 h [15]: 11600 ng·h/mL; LC20 (HEK293): <=31 uM; concentration at 24 h [20]: 800 nM; bioavailability [21]: 1.5%
NS(=O)(=O)Oc1ccc(-c2ccc(C(=O)c3c(F)ccc(O)c3F)s2)cc1Cl	–	–	15 nM	< 5 min	< 5 min	33	–	–	Ratio IC50 (Homo sapiens [18]): 36
O=c1ccc2ccc(O)cc2o1 [UMBELLIFERONE]	–	139 µL/min/mg	–	–	–	–	–	–	–
Cc1ccccc1N(C)C(=O)c1ccc(-c2cc(C)c(O)c(C)c2)o1	2.9 nM	18.2 µL/min/mg	–	19 min	38 min	570	–	–	Ratio IC50 (Homo sapiens [18]): 563; t1/2 ([8]; s9, 1 h, 1 h): 19.1 min; t1/2 ([9]; s9, 1 h, 1 h): 38.1 min; inhibition [17]: < 10%
Cc1cc(-c2ccc(C(=O)N(C)c3cccc(OS(N)(=O)=O)c3)o2)cc(C)c1O	80 nM	–	92 nM	–	–	36	180 nM	6400 nM	–
Cc1cc(-c2ccc(C(=O)N(C)c3ccc(OS(N)(=O)=O)cc3)o2)cc(C)c1O	110 nM	–	150 nM	–	–	18	430 nM	7700 nM	–
Cc1cc(-c2ccc(C(=O)N(C)c3cccc(OS(N)(=O)=O)c3C)o2)cc(C)c1O	58 nM	–	–	–	–	–	–	–	inhibition [17]: < 10%
Cc1cc(-c2ccc(C(=O)N(C)c3ccc(OS(N)(=O)=O)c(Cl)c3)o2)cc(C)c1O	88 nM	–	38 nM	–	–	6	400 nM	2400 nM	–
Cc1cc(-c2ccc(C(=O)N(C)c3ccc(OS(N)(=O)=O)c(F)c3)o2)cc(C)c1O	140 nM	–	83 nM	–	–	6	500 nM	3200 nM	–
